CN1063108A, “三氟甲基酮衍生物及其制备方法和用途” (Fujisawa Pharmaceutical Co Ltd, priority 1990, dated 1992)
Numbered stars: 1 amine (or outer) side, 2 acyl side, 3 side chain; on linkers, the order of the positions; unused ones are H or OH. Square brackets hold non-standard residues; d marks the D form. Peptide text beside a SMILES is read from it. * marks the point of attachment. ξ: configuration not given here. 4Abz = Nc1ccc(C(=O)O)cc1; CO = O=C([*:1])[*:2]; ξV = CC(C)C(N)C(=O)O; CF3 = FC(F)(F)*

How the values were obtained:
[1] = tested on: human sputum elastase-induced lung hemorrhage in hamsters; test: Elastase-induced lung hemorrhage (hemoglobin in BAL cells, OD 541 nm); format: in vivo, hamster; settings: for Hemorrhage (OD541nm) / % inhibition of lung hemorrhage: 5 min before elastase; for Hemorrhage (OD541nm): BAL 3 h later; for ED50, inhibition of lung hemorrhage: intratracheal, 5 min pre-dose
[2] = tested on: PPE-induced emphysema in Golden Syrian hamsters; test: Experimentally induced (porcine pancreatic elastase) emphysema in hamsters, lung mechanics; format: in vivo, hamster; settings: for Cst (quasi-static lung compliance) / VC (vital capacity): 5 min before PPE 100 μg/site, 3 weeks later
[3] = tested on: HSE-induced paw edema in C57BL mice; test: Human sputum elastase-induced mouse paw edema; format: in vivo; settings: for Footpad thickness (difference right-left hind paw): 15 min before HSE 20 μg/site, measured 2 h after HSE
[4] = 1 μg/site intratracheal, listed as 13
[5] = 10 μg/site intratracheal, listed as 13
[6] = 100 μg/site intratracheal, listed as 13
[7] = 1 μg/site intratracheal, listed as 19
[8] = 10 μg/site intratracheal, listed as 19
[9] = 100 μg/site intratracheal, listed as 19

CC(C)C(NC(=O)[C@@H]1CCCN1C(=O)[C@@H](NC(=O)c1ccc(C(=O)NCC(=O)O)cc1)C(C)C)C(=O)C(F)(F)F (stereo partly drawn) [实施例13, 3(RS)-[[4-(羧基甲基氨基羰基)苯基羰基]-L-缬氨酰基-L-脯氨酰基]氨基-1，1，1-三氟-4-甲基-2-氧代戊烷]
Hemorrhage (OD541nm) [1, 4]: 11.63±1.99 OD541nm | % inhibition of lung hemorrhage [1, 4]: 21.6% | Hemorrhage (OD541nm) [1, 5]: 4.217±1.02 OD541nm | % inhibition of lung hemorrhage [1, 5]: 74.5% | Hemorrhage (OD541nm) [1, 6]: 0.6384±0.222 OD541nm | % inhibition of lung hemorrhage [1, 6]: 100.0% | ED50, inhibition of lung hemorrhage ([1]; listed as 13): 3.0 μg/位点

CC(C)C(NC(=O)[C@@H]1CCCN1C(=O)[C@@H](NC(=O)c1ccc(C(=O)NCC(=O)O)cc1)C(C)C)C(=O)C(F)(F)F (stereo partly drawn) [实施例19, 3(RS)-[[4-(羧甲基氨基羰基)苯基羰基]-L-缬氨酰基-L-脯氨酰基]氨基-1，1，1-三氟-4-甲基-2-氧代戊烷]
Cst, % inhibition ([2]; 1 μg/site intratracheal): 15% | VC, % inhibition ([2]; 1 μg/site intratracheal): 12% | Cst (quasi-static lung compliance) ([2]; 1 μg/site intratracheal): 1.39±0.05 ml/cm H2O | VC (vital capacity) ([2]; 1 μg/site intratracheal): 7.0 ± 0.1 mL | Cst, % inhibition ([2]; 10 μg/site intratracheal): 84% | VC, % inhibition ([2]; 10 μg/site intratracheal): 65% | Cst (quasi-static lung compliance) ([2]; 10 μg/site intratracheal): 0.70±0.04 ml/cm H2O | VC (vital capacity) ([2]; 10 μg/site intratracheal): 5.8 ± 0.1 mL | Cst, % inhibition ([2]; 100 μg/site intratracheal): 100% | VC, % inhibition ([2]; 100 μg/site intratracheal): 97% | Cst (quasi-static lung compliance) ([2]; 100 μg/site intratracheal): 0.53±0.02 ml/cm H2O | VC (vital capacity) ([2]; 100 μg/site intratracheal): 5.0 ± 0.1 mL | Potency compared with prior-art compounds by Cst and VC (in words) ([2]; based on Cst and VC values): 效力优于先有技术化合物A和B | Effect of pretreatment on PPE-induced increase in lung mechanics (in words) ([2]; dose-related, intratracheal pretreatment): 防止了PPE诱发的肺力学增加 | % inhibition of paw edema ([3]; 1 mg/Kg s.c.): 6.4% | Footpad thickness (difference right-left hind paw) ([3]; 1 mg/Kg s.c.): 43.8±5.67 ×10-2mm | % inhibition of paw edema ([3]; 10 mg/Kg s.c.): 20.9% | Footpad thickness (difference right-left hind paw) ([3]; 10 mg/Kg s.c.): 37.0±13.41 ×10-2mm | % inhibition of paw edema ([3]; 100 mg/Kg s.c.): 42.3% | Footpad thickness (difference right-left hind paw) ([3]; 100 mg/Kg s.c.): 27.0±4.66 ×10-2mm | Hemorrhage (OD541nm) [1, 7]: 11.59±1.40 OD541nm | % inhibition of lung hemorrhage [1, 7]: 10.8% | Hemorrhage (OD541nm) [1, 8]: 1.663±0.690 OD541nm | % inhibition of lung hemorrhage [1, 8]: 93.1% | Hemorrhage (OD541nm) [1, 9]: 0.2141±0.020 OD541nm | % inhibition of lung hemorrhage [1, 9]: 105.2% | ED50, inhibition of lung hemorrhage ([1]; listed as 19): 2.4 μg/位点

CC(C)C(NC(=O)[C@@H]1CCCN1C(=O)[C@@H](NC(=O)c1ccc(C(=O)NCCN2CCOCC2)cc1)C(C)C)C(=O)C(F)(F)F.Cl (stereo partly drawn) [实施例21, 3(RS)-[[4-[[2-(4-吗啉代)乙基]氨基羰基]苯基羰基]-L-缬氨酰基-L-脯氨酰基]氨基-1，1，1-三氟-4-甲基-2-氧代戊烷盐酸盐]
% inhibition of lung hemorrhage ([1]; 1 μg/site intratracheal): 13.6% | Hemorrhage (OD541nm) ([1]; 1 μg/site intratracheal): 12.76±1.11 OD541nm | % inhibition of lung hemorrhage ([1]; 10 μg/site intratracheal): 66.3% | Hemorrhage (OD541nm) ([1]; 10 μg/site intratracheal): 5.372±2.06 OD541nm | % inhibition of lung hemorrhage ([1]; 100 μg/site intratracheal): 100.0% | Hemorrhage (OD541nm) ([1]; 100 μg/site intratracheal): 0.6476±0.129 OD541nm | ED50, inhibition of lung hemorrhage [1]: 4.5 μg/位点

CC(C)C(NC(=O)[C@@H]1CCCN1C(=O)[C@@H](NC(=O)Nc1ccc(C(=O)NCC(=O)O)cc1)C(C)C)C(=O)C(F)(F)F (stereo partly drawn) [实施例23, 3(RS)-[[4-(羧甲基氨基羰基)苯基氨基羰基]-L-缬氨酰基-L-脯氨酰基]氨基-1，1，1-三氟-2-氧代-4-甲基戊烷] ({Gly-4Abz-CO}-Val-Pro-[ξV]-CF3)
% inhibition of lung hemorrhage ([1]; 1 μg/site intratracheal): 16.0% | Hemorrhage (OD541nm) ([1]; 1 μg/site intratracheal): 9.435±0.941 OD541nm | % inhibition of lung hemorrhage ([1]; 10 μg/site intratracheal): 75.6% | Hemorrhage (OD541nm) ([1]; 10 μg/site intratracheal): 3.412±1.31 OD541nm | % inhibition of lung hemorrhage ([1]; 100 μg/site intratracheal): 102.1% | Hemorrhage (OD541nm) ([1]; 100 μg/site intratracheal): 0.7258±0.303 OD541nm | ED50, inhibition of lung hemorrhage [1]: 3.2 μg/位点

CC(C)C(NC(=O)CN(C(=O)[C@@H](NC(=O)c1ccc(C(=O)NCC(=O)[O-])cc1)C(C)C)C1Cc2ccccc2C1)C(=O)C(F)(F)F.[Na+] (stereo partly drawn) [实施例27, 3(RS)-[[4-(羧甲基氨基羰基)苯基羰基]-L-缬氨酰基-N-(2-二氢化茚基)甘氨酰基]氨基-1，1，1-三氟-4-甲基-2-氧代戊烷钠盐]
% inhibition of lung hemorrhage ([1]; 1 μg/site intratracheal): 24.8% | Hemorrhage (OD541nm) ([1]; 1 μg/site intratracheal): 10.68±1.25 OD541nm | % inhibition of lung hemorrhage ([1]; 10 μg/site intratracheal): 66.9% | Hemorrhage (OD541nm) ([1]; 10 μg/site intratracheal): 4.878±0.917 OD541nm | % inhibition of lung hemorrhage ([1]; 100 μg/site intratracheal): 99.8% | Hemorrhage (OD541nm) ([1]; 100 μg/site intratracheal): 0.3451±0.084 OD541nm | ED50, inhibition of lung hemorrhage [1]: 3.7 μg/位点

CC(C)C(NC(=O)CN(C(=O)[C@@H](NC(=O)c1ccc(C(=O)NCCN2CCOCC2)cc1)C(C)C)C1Cc2ccccc2C1)C(=O)C(F)(F)F.Cl (stereo partly drawn) [实施例29, 3(RS)-[[4-[[2-(4-吗啉代)乙基]氨基羰基]苯基羰基]-L-缬氨酰基-N-(2-二氢化茚基)甘氨酰基]氨基-1，1，1-三氟-4-甲基-2-氧代戊烷的盐酸盐]
% inhibition of lung hemorrhage ([1]; 1 μg/site intratracheal): 14.9% | Hemorrhage (OD541nm) ([1]; 1 μg/site intratracheal): 12.05±1.95 OD541nm | % inhibition of lung hemorrhage ([1]; 10 μg/site intratracheal): 43.2% | Hemorrhage (OD541nm) ([1]; 10 μg/site intratracheal): 8.155±1.76 OD541nm | % inhibition of lung hemorrhage ([1]; 100 μg/site intratracheal): 69.4% | Hemorrhage (OD541nm) ([1]; 100 μg/site intratracheal): 4.545±1.49 OD541nm | ED50, inhibition of lung hemorrhage [1]: 17.9 μg/位点
